Measurements as given in patent publication US20190365754A1, “METHOD OF ELIMINATING STEM CELLS” (Yissum Research Development Company Of The Hebrew …, priority 2014, published 2019).

Assays:
[1] = tested on: beta catenin, p53, DNA damage response; test: Stabilization of beta catenin and p53 and DNA damage response by CKI inhibitors
β-catenin, p53, c-Myc = test: Western blot of bone marrow from inhibitor-treated CML carrying mice; assay type: in vivo, mouse; details: daily i.p. 60 mg/Kg; FIG. 6B
Procedure: (§1) The PF670462 was dissolved in 20% 2-hydroxypropyl β-cyclodextrin (vehicle) and administered by daily I.P. of 60 mg/Kg starting 7 hour after disease transfer. The control mice were treated with the vehicle only.
Whole cell lysate were extracted in the presence of protease and phosphatase inhibitors from the bone marrow of CML carrying mice treated with either vehicle or PF670462.
Protein extracts, separated by […] and transferred onto nitrocellulose membranes, were probed with antibodies against beta-catenin, c-Myc, p53 and HSP90. Proteins of interest were detected with HRP-conjugated Donkey/Rabbit anti-mouse IgG antibody (1:5000. GE Healthcare, Uppsala, Sweden) and visualized with the Pierce ECL Western blotting substrate (Thermo Scientific, Rockford, Ill.), according to the provided protocol.

[2] = tested on: leukemia initiating cells (LIC); test: BCR-ABL CML blast crisis mouse model, in vivo treatment
Procedure: To generate the BCR-ABL-inducible CML model, BM cells from MxCre^− Ck1α1^fl/fl or MxCre^+ Ck1 α1^fl/fl were extracted and enriched for cKit expressing cells (EasySep #18757) and incubated overnight in RPMI supplemented with 15% FCS L-Glutamine, Pen/Strep (Beit Haemek) and stem cell factor (SCF), IL-3, IL-6 and TPO (Peprotech). The culture was then infected with p210BCR-ABL-IRES-GFP retrovirus construct containing supernatant medium for 4 hours and returned to medium for additional 24 h. The culture was then injected I.V. into sub-lethally irradiated (500 rad) mice. Upon detectable steady increase of GFP expressing cells in the mice peripheral blood (by FACS) and rise in leukocyte numbers and immature cells (detected by Wright-Giemsa stained blood films) the mice were sacrificed and their bone marrow was transferred to sub-lethally irradiated WT hosts.
Each such transfer was termed disease generation. By the fourth transfer, the hosts were no longer sub-lethally irradiated prior to disease transfer and the time between generations was shorter (usually 10 days). Blast crisis development was easily detectable by the highly abnormal number of blast cells (more than 30% of WBC in PB) and the shortening time between transfers. The experimental procedure is illustrated in FIG. 3. Experiments were performed on late generation diseases in which blasts were easily detectable, no irradiation of hosts was necessary and the generation time was short (up to 14 days). Mice were monitored daily for cachexia, lethargy, and ruff coats, paralysis and moribund mice were sacrificed.
as §1

WT BM cells = test: 7AAD-/Annexin+ apoptosis assay, WT BM cells; assay type: cell-based, mouse; details: FIG. 5D
Procedure: (§2) Freshly isolated bone marrow from CML carrying mice was mixed with normal mice bone marrow in a 1:1 ratio and grown in RPMI supplemented with 15% FCS L-Glutamine, Pen/Strep, Hepes, Sodium Pyruvate, non-essential amino acids (Beit Haemek). PF670462 inhibitor was dissolved in DMSO and added to the tissue culture medium at the indicated concentrations and 0.1% DMSO. As for control, the cells were treated with vehicle only. After 36-48 h, cells were harvested and counted manually using a camera and standard inverted light microscope. Dead cells were excluded using Trypan Blue (sigma). The number of normal and BCR-ABL expressing cells was later extrapolated according to FACS analysis of % GFP^+/7AAD^− expressing cells. AnnexinV-PE (MBL), 7AAD (Tonbo) staining was evaluated by FACS according to manufacturer's recommendation.

leukemic cells = test: 7AAD-/Annexin+ apoptosis assay, leukemic cells; assay type: cell-based, mouse; details: FIG. 5D
Procedure: as §2

normal BM cells = test: In vitro inhibitor test, normal cell number in 1:1 mixed CML/normal bone marrow culture; assay type: cell-based, mouse; details: increasing concentration of inhibitor
Procedure: as §2

[3] = tested on: BCR-ABL expressing (GFP+) leukemic cells; test: In vitro inhibitor test, leukemic cell number in 1:1 mixed CML/normal bone marrow culture; assay type: cell-based; details: increasing concentration of inhibitor
Procedure: as §2

Wnt and p53 pathway = test: Quantitative RT-PCR of p53 and Wnt targets in inhibitor-treated bone marrow cells; assay type: cell-based, mouse; details: bone marrow cells treated in vitro; FIG. 5B
Procedure: as §2
Total RNA from cells was extracted using DirectZol RNA miniprep (Zymed). cDNA was generated using a poly(dT) oligonucleotides (IDT) and MMLV—Reverse Transcriptase (Invitrogen) and amplified on a 7900HT Real Time PCR System (Applied Biosystems) using Platinum® SYBR® Green (Invitrogen) according to the manufacturer's instructions. At least triplicate reactions were performed for each gene. Melting curve analysis was performed after each run to control for the nonspecific PCR products and primer dimers. […]

[4] = bone marrow of inhibitor-treated mice transplanted to lethally irradiated mice, one month after transplantation

NC(=O)c1ccc(-c2nc(-c3ccc4c(c3)OCCO4)c(-c3ccccn3)[nH]2)cc1 [D4476] was tested, and the “induction of a DNA damage response” value [1] was “nor do they induce a DNA damage response” and the “stabilization of beta catenin and p53” value [1] was “none of these agents stabilize beta catenin and p53”.
COc1cc(OC)c(C=C2C(O)=Nc3ccccc32)c(OC)c1 [IC261] was tested, and the “induction of a DNA damage response” value [1] was “nor do they induce a DNA damage response” and the “stabilization of beta catenin and p53” value [1] was “none of these agents stabilize beta catenin and p53”.
For NCCNS(=O)(=O)c1ccc(Cl)c2ccncc12 [CKI7], the “induction of a DNA damage response” value [1] was “nor do they induce a DNA damage response” and the “stabilization of beta catenin and p53” value [1] was “none of these agents stabilize beta catenin and p53”.
With Nc1nccc(-c2c(-c3ccc(F)cc3)ncn2C2CCCCC2)n1 [PF670462] the “β-catenin, p53 and c-Myc protein in bone marrow (Western blot)” value (β-catenin, p53, c-Myc) was “stabilization of β-catenin and p53 and induction of the Wnt target gene c-Myc”, the “bone marrow reconstitution of secondary recipients (LT-HSC integrity)” value [2, 4] was “fully reconstitute” and the “leukemia GFP+ cells in peripheral blood of secondary recipients” value [2, 4] was “no evidence of leukemia GFP+ cells”. The “GFP+ leukemic cells in peripheral blood” value ([2]; daily i.p. 60 mg/Kg starting 7 hour after disease transfer, FIG. 6C) was “almost undetectable”, the “bone marrow / vertebrate histology” value ([2]; daily i.p. 60 mg/Kg, FIG. 6D) was “normal bone marrow appearance with intact vertebrates” and the “blasts in peripheral blood” value ([2]; daily i.p. 60 mg/Kg, FIG. 6E) was “no blast were detected”. The “survival of leukemic mice” value ([2]; daily i.p. 60 mg/Kg, vehicle group died within 12 days, FIG. 6F) was “remained alive”, the “apoptotic cell rate (7AAD-/Annexin+)” value (WT BM cells) was “not significantly effected” and the “apoptotic cell rate (7AAD-/Annexin+)” value (leukemic cells) was “increase in apoptotic cell rate under the inhibitor treatment in a dosage dependent manner”. The “normal BM cell number” value (normal BM cells) was “only slightly reduced”, the “decline in leukemic cell number” value [3] was “much more prominent” and the “expression of Wnt and p53 targets (RT-PCR)” value (Wnt and p53 pathway) was “upregulation of Wnt and p53 in a dose dependent manner”.
